Reference: US20070265273A1, “Pyrimidin-2-Amine Derivatives and Their Use as A2b Adenosine Receptor Antagonists” (priority 2003, published 2007)
pKi: −log10 of the molar value. Read-outs that look alike come from different tables or passages of the source.

Columns and labels:
[1] = target: T1, human recombinant A1 receptors (Homo sapiens, UniProt P30542); experiment: Adenosine 1 receptor subtype competition radioligand binding assay; details: 1 h, [3H]-DPCPX, CHO-K1 membranes, read-out: Binding human A1, % @ 1 μM (column headed Ki (nM))
T1 construct: host or cells: CHO-K1
T1 sequence (P30542 1-326): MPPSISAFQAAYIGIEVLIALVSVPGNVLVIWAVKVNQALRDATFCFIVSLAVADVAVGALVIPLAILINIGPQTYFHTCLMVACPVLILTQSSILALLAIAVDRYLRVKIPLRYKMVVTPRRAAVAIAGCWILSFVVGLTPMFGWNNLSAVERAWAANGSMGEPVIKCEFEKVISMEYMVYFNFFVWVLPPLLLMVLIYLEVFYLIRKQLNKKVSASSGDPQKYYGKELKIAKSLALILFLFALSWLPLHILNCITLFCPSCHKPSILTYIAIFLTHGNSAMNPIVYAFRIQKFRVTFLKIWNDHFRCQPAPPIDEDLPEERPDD
Procedure: Adenosine I Receptor Subtype Competition Radioligand Binding Assay
CHO-K1 cells expressing human recombinant A1 receptors were purchased from Euroscreen (Belgium). For membrane preparation, cells were collected from tissue culture plates using a cell scraper, resuspended in 10-15 ml of homogenization buffer (Tris-HCl 15 mM pH 7.5, MgCl2 2 mM, EDTA 0.3 mM, EGTA 1 mM), homogenized, and centrifuged at 40.000 g for 25 minutes. The resulting pellet was resuspended in the same buffer and centrifuged again for 25 minutes. Finally, the pellet was resuspended in 500 μl of storage buffer (Tris-HCl 7.5 mM pH 7.5, MgCl2 12.5 mM, EDTA 0.3 mM, EGTA 1 mM, sucrose 250 mM) where the total protein content was determined.
Competition assays were carried out incubating 15 μg of A1-membrane preparations, 2 nM [^3H]-DPCPX (Amersham) as radioligand and 10 μM of unlabeled DPCPX ligand, in a total volume of 100 μl of buffer (Hepes 20 mM pH 7.4, NaCl 100 mM, MgCl2 10 mM, 2 U/ml adenosin deaminase) for 1 h at 25° C. Samples were filtered and washed 4 times with 250 μl of buffer (Hepes 20 mM pH 7.4, NaCl 100 mM, MgCl2 10 mM) using plates (Millipore MAFCN0B50) preincubated for 15 min. in 250 μl of the same buffer. Samples were counted using 30 μl of LSC Universol (ICN) in a Wallac 1450 Microbeta counter. Non specific binding was tested using 10 μM R-PIA.

[2] = target: T2, human recombinant A2A receptor (Homo sapiens, UniProt P29274); experiment: Adenosine 2A receptor subtype competition radioligand binding assay; details: [3H]-ZM241385, Hela cell membranes
T2 construct: expressed in transfected cells; host or cells: HeLa (stably transfected)
T2 sequence (P29274 whole entry): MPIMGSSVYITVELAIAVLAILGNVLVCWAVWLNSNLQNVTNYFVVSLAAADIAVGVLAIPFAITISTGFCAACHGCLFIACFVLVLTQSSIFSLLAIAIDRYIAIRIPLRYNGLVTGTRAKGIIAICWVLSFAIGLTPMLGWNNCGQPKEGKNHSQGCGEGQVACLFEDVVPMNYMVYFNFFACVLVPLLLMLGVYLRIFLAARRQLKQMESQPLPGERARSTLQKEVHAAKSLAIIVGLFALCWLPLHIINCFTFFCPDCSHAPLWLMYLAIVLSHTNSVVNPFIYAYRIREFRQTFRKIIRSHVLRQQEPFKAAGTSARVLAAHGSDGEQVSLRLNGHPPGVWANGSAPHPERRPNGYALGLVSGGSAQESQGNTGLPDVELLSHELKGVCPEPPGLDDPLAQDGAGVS
Procedure: Adenosine 2A Receptor Subtype Competition Radioligand Binding Assay
(§1) Membranes were prepared from Hela cells stably transfected with the human recombinant A2A receptor. For membrane preparation, cells were collected from tissue culture plates using a cell scraper, resuspended in 10-15 ml homogenization buffer (Tris-HCl 5 mM, EDTA 2 mM), homogenized, and centrifuged at 1.000 g. for 10 min. at 4° C. The supernatant was then recovered and centrifuged at 50.000 g for 1 h. at 4° C. Finally, the pellet was resuspended in 100-500 μl storage buffer (Tris-HCl 50 mM pH 7.4) where the total protein content was determined.
Competition assays were carried out incubating 5 μg of A2A-membranes, 3 nM [^3H]-ZM241385 (Tocris) as radioligand and 50 μM of unlabeled ZM241385 ligand, in a total volume of 100 μl of buffer (TrisHCl 50 μM pH 7.4, EDTA 1 mM, MgCl2 10 mM, 2 U/ml adenosin deaminase) for 30 minutes at 25° C. Samples were then filtered and washed 4 times with 250 μl of buffer (TrisHCl 50 μM pH 7.4, EDTA 1 mM, MgCl2 10 mM) using plates (Millipore MAFCN0B50) preincubated for 15 min. in 250 μl of the same buffer. Samples were counted using 30 μl of LSC Universol (ICN) in a Wallac 1450 Microbeta counter. Non specific binding was tested using 50 μM NECA.

[3] = target: T3, human recombinant A3 receptor (Homo sapiens, UniProt P0DMS8); experiment: Adenosine 3 receptor subtype competition radioligand binding assay
T3 construct: expressed in transfected cells; host or cells: HeLa (stably transfected)
T3 sequence (P0DMS8 1-318): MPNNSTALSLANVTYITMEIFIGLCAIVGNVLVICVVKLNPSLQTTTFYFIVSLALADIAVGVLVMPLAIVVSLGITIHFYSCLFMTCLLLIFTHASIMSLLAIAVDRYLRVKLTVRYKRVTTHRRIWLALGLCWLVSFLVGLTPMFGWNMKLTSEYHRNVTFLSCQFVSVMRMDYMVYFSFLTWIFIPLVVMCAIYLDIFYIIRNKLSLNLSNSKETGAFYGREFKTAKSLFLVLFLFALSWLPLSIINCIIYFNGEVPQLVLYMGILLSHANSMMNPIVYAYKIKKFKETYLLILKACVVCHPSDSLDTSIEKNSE
Procedure: Adenosine 3 Receptor Subtype Competition Radioligand Binding Assay
as §1, with “A3” for “A2A”, “ml of” for “ml”, “μl of” for “μl”
Competition assays were carried out incubating 100 μg of A3-membranes, 30 nM [^3H]-NECA (Amersham) as radioligand and 50 μM of unlabeled NECA ligand, in a total volume of 100 μl of buffer (Tris-HCl 50 mM pH 7.4, MgCl2 5 mM, EDTA 1 mM, 2 U/ml adenosine deaminase) for 3 hours at 25° C. Samples were filtered 4 times with 250 μl of buffer (Tris-HCl 50 mM pH 7.4) using plates (Millipore MAFBN0B50) preincubated for 15 min. in 250 μl of the same buffer. Samples were counted using 30 μl of LSC Universol (ICN) in a Wallac 1450 Microbeta counter. Non specific binding was tested using 100 μM of R-PIA.

[4] = [3H]-NECA, Hela cell membranes, read-out: Binding human A3 Ki

With `c1cncc(Nc2ncc(-c3ccncn3)c(-c3cccs3)n2)c1` [Example 6, N-Pyridin-3-yl-4′-thien-2-yl-4,5′-bipyrimidin-2′-amine] the inhibition at 1 µM [1] was 31%, the pKi [2] was 6.21 and the pKi [3, 4] was 6.51.

For `[O-][n+]1cccc(Nc2ncc(-c3ccncn3)c(-c3ccco3)n2)c1` [Example 12, 4′-(2-Furyl)-N-(1-oxidopyridin-3-yl)-4,5′-bipyrimidin-2′-amine], the inhibition at 1 µM [1] was 4%, the “Binding human A2A, % @ 1 μM (column headed Ki (nM))” value (shortened to “Binding human A2A, % @ 1 μM”) [2] was 7% @ 1 μM and the pKi [3, 4] was 6.07.

`c1cncc(Nc2ncc(-c3ccncn3)c(-c3ccco3)n2)c1` [Example 1, 4′-(2-Furyl)-N-pyridin-3-yl-4,5′-bipyrimidin-2′-amine] was tested, and the inhibition at 1 µM [1] was 14%, the pKi [2] was 5.60 and the pKi [3, 4] was 5.96.

With `c1cncc(Nc2ncc(-c3ccnnc3)c(-c3ccco3)n2)c1` [Example 11, 4-(2-Furyl)-5-pyridazin-4-yl-N-pyridin-3-ylpyrimidin-2-amine] the inhibition at 1 µM [1] was 23%, the “Binding human A2A, % @ 1 μM” value [2] was 17% @ 1 μM and the pKi [3, 4] was 6.39.

For `COc1ccc(Nc2ncc(-c3ccncn3)c(-c3ccco3)n2)cn1` [Example 2, 4′-(2-Furyl)-N-(6-methoxypyridin-3-yl)-4,5′-bipyrimidin-2′-amine], the inhibition at 1 µM [1] was 5%, the “Binding human A2A, % @ 1 μM” value [2] was 14% @ 1 μM and the pKi [3] was 5.37.

For `O=c1ccc(Nc2ncc(-c3ccncn3)c(-c3ccco3)n2)c[nH]1` [Example 21, 5-{[4′-(2-Furyl)-4,5′-bipyrimidin-2′-yl]amino}pyridin-2(1H)-one], the inhibition at 1 µM [1] was 0%, the “Binding human A2A, % @ 1 μM” value [2] was 0% @ 1 μM and the pKi [3, 4] was 5.55.

In the case of `Fc1ccc(Nc2ncc(-c3ccncn3)c(-c3ccco3)n2)cn1` [Example 4, N-(6-Fluoropyridin-3-yl)-4′-(2-furyl)-4,5′-bipyrimidin-2′-amine], the inhibition at 1 µM [1] was 30%, the “Binding human A2A, % @ 1 μM” value [2] was 21% @ 1 μM and the pKi [3, 4] was 5.77.

With `c1coc(-c2nc(Nc3cncnc3)ncc2-c2ccncn2)c1` [Example 13, 4′-(2-Furyl)-N-pyrimidin-5-yl-4,5′-bipyrimidin-2′-amine] the inhibition at 1 µM [1] was 3%, the “Binding human A2A, % @ 1 μM” value [2] was 15% @ 1 μM and the pKi [3, 4] was 5.84.
